Assay results as given in patent publication US10538528B2, “5H-pyrrolo[2,3-D]pyrimidin-6(7H)-one derivative” (Taiho Pharmaceutical Co., Ltd., priority 2016, dated 2020).

Assays:
Assay type in all cases: biochemical
Rsk1 = Rsk1 (Homo sapiens (Human), UniProt Q15418); test: Inhibitory effects on Rsk1 kinase activity (QSS Assist FP assay kit); settings: Rsk1, ATP 30 μM; read-out: Rsk inhibitory activity IC50
Description: Inhibitory activity of the compound according to the present invention on Rsk1 kinase activity in vitro was assayed using the QSS Assist™ FP assay kit (Carna Biosciences, Inc.).
In the inhibition assay of inhibitory activity of the compound, the test compound was diluted by serial dilution with dimethyl sulfoxide (DMSO). Subsequently, an Rsk1 protein, a substrate peptide (final concentration: 100 nM), magnesium chloride (final concentration: 10 mM), ATP (final concentration: 30 μM), and the solution of the test compound in DMSO (DMSO final concentration: 5%) were added to the kinase reaction buffer (20 mM HEPES (pH 7.4), 2 mM dithiothreitol, 0.01% Tween-20), and the mixture was incubated at 25° C. for 40 minutes to perform the kinase reaction. The IMAP Progressive Binding Reagent diluted to 400-fold with the IMAP Progressive Binding Buffer A (Molecular Devices, LLC) was added to terminate the kinase reaction.

S6K1 = S6K1 (Homo sapiens (Human), UniProt P23443); test: Inhibitory effects on S6K1 kinase activity (QSS Assist FP assay kit); settings: S6K1, ATP 25 μM; read-out: S6K inhibitory activity IC50
S6K1, sequence (P23443 whole entry): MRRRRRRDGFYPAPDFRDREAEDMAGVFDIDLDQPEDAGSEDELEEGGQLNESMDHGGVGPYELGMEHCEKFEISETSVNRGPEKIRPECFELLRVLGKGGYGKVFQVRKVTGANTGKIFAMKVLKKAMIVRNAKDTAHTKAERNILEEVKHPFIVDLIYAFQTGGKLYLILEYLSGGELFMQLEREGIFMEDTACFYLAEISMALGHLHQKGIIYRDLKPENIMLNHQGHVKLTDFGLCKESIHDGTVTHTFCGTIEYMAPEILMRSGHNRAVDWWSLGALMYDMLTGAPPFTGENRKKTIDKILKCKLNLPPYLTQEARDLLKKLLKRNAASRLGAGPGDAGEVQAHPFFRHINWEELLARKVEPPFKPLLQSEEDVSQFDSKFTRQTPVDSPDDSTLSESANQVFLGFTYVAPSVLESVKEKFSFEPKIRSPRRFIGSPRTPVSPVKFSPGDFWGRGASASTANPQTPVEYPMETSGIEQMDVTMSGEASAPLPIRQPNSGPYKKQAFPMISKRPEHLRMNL
Description: Inhibitory activity of the compound according to the present invention on S6K1 kinase activity in vitro was assayed using the QSS Assist™ FP assay kit (Carna Biosciences, Inc.).
In the inhibition assay for inhibitory activity of the compound, the test compound was diluted by serial dilution with dimethyl sulfoxide (DMSO). Subsequently, an S6K protein, a substrate peptide (final concentration: 100 nM), magnesium chloride (final concentration: 5 mM), ATP (final concentration: 25 μM), and the solution of the test compound in DMSO (final DMSO concentration: 5%) were added to the kinase reaction buffer (20 mM HEPES (pH 7.4), 2 mM dithiothreitol, 0.01% Tween-20), and the mixture was incubated at 25° C. for 30 minutes to perform the kinase reaction. The IMAP Progressive Binding Reagent diluted to 400-fold with the IMAP Progressive Binding Buffer A (Molecular Devices, LLC) was added thereto to terminate the kinase reaction. The reaction product was allowed to stand at room temperature in the dark for 120 minutes and assayed with the use of PHERAstar (BMG LABTECH; excitation wavelength: 485 nm; detection wavelength: 520 nm). The level of phosphorylation reaction was determined based on the degree of fluorescence polarization, and the concentration of the compound at which phosphorylation could be inhibited by 50% was defined as the IC50 level (nM) and shown in Table 4.

human Akt1 = human Akt1 (Homo sapiens (Human), UniProt P31749); test: Inhibitory effects on Akt1 kinase activity (TR-FRET, biotinylated Crosstide); settings: Akt1, ATP 150 μM, pre-incubation 120 minutes at 25° C.; read-out: AKT inhibitory activity IC50
human Akt1, sequence (P31749 whole entry): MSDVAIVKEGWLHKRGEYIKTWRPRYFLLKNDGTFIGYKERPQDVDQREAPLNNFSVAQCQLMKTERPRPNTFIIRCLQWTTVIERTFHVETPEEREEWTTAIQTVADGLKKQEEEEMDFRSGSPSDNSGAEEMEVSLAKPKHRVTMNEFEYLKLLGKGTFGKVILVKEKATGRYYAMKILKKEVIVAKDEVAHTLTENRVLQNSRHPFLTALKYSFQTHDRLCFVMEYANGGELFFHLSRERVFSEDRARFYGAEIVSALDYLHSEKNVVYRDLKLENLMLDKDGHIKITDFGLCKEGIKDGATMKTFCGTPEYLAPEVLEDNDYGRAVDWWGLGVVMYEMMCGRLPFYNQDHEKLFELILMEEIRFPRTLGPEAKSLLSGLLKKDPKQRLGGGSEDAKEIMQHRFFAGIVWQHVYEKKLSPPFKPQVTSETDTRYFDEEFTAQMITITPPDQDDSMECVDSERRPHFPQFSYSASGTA
Description: Akt1 was prepared and assays of inhibitory activity of the compound according to the present invention against Akt1 kinase activity in vitro were conducted according to the method described in Biochem. J., vol. 385, pp. 399-408, 2005 and Cancer Res., vol. 68, pp. 2366-2374, 2008. In the preparation of Akt1 protein, human Akt1 tagged with the middle T antigen was expressed in an insect cell Sf9, Akt1 was prepared through affinity purification and activation by PDK1, and the resultant was stored at −80° C. until the inhibition assays of the compounds. In the inhibition assay of the compounds, Akt1 and the compound according to the present invention were subjected to pre-incubation at 25° C. for 120 minutes in a reaction buffer (15 mM Tris-HCl, pH 7.5, 0.01% Tween-20, 2 mM DTT). Subsequently, biotinylated Crosstide (biotin-[…], Millipore), MgCl2, and ATP were added as substrates at the final concentration of 500 nM, 10 mM, and 150 μM, respectively, and the reaction was allowed to proceed at 25° C. for 60 minutes. EDTA was added to the final concentration of 40 mM to terminate the reaction, a detection liquid containing the Eu-anti-phospho-Crosstide antibody (PerkinElmer) and SureLight APC-SA (PerkinElmer) at the final concentration of 0.5 nM and 62.5 nM, respectively was added, and the reaction was allowed to proceed at room temperature for 2 hours. In the end, the fluorescence levels irradiated with an excitation light of 337 nm were assayed at two different wavelength levels (i.e., 620 nm and 665 nm) using PI-HERAstar FS (BMG LABTECH) or PHERAstar (BMG LABTECH). The level of the phosphorylation reaction was determined on the basis of the ratio of fluorescence levels at two wavelength levels, and the concentration of the compound at which phosphorylation could be inhibited by 50% was defined as the IC50 level (nM) and shown in Table 2.
As reference compounds, conventional Comparative Example A (WO 2010/056563 (Example 31)) and Comparative Example B having inhibitory activity against Akt were used.

Rsk1, sequence (Q15418 whole entry): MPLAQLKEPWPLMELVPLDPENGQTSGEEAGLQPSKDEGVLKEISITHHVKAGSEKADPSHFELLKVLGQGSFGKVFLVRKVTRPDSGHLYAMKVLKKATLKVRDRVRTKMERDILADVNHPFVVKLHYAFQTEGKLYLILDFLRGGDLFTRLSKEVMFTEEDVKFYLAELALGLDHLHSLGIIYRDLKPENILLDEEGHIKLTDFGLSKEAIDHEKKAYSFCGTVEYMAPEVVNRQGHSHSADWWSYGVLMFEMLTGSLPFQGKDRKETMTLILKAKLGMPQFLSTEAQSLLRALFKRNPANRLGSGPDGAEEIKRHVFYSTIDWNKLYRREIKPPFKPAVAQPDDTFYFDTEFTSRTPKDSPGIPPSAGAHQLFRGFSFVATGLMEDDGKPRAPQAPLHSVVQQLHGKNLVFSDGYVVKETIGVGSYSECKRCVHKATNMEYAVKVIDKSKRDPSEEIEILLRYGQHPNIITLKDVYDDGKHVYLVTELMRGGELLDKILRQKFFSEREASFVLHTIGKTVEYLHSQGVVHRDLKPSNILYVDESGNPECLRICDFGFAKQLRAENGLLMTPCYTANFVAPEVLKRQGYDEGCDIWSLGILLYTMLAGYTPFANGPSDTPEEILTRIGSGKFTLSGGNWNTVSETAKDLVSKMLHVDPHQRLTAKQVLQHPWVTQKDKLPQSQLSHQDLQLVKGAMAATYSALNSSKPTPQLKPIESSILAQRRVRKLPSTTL

Row | Compound | IC50 (Rsk1) [nM] | IC50 (S6K1) [nM] | IC50 (human Akt1) [nM]
1 | CC(C)(C)NCCNc1ccc(-c2nnc(C(F)F)s2)nc1C1CCN(c2ncnc3c2C(C)(C)C(=O)N3)CC1 [Compound 37, 4-(4-(3-((2-(Tert-butylamino)ethyl)amino)-6-(5-(difluoromethyl)-1,3,4-thiadiazol-2-yl)pyridin-2-yl)piperidin-1-yl)-5,5-dimethyl-5H-pyrrolo[2,3-d]pyrimidin-6(7H)-one] | 0.5 | 0.3 | 3.3
2 | CC1C(=O)Nc2ncnc(N3CCC(c4nc(-c5cncc(F)c5)ccc4NCCN4CCCC4)CC3)c21 (stereo not shown) [Compound 19, 4-(4-(5′-Fluoro-5-((2-(pyrrolidin-1-yl)ethyl)amino)-[2,3′-bipyridin]-6-yl)piperidin-1-yl)-5-methyl-5H-pyrrolo[2,3-d]pyrimidin-6(7H)-one] | 0.9 | 0.5 | 0.4
3 | CC(C)NCCNc1ccc(-c2cc(C(F)(F)F)nn2C)nc1C1CCN(c2ncnc3c2C(C)(C)C(=O)N3)CC1 [Compound 10, 4-(4-(3-((2-(Isopropylamino)ethyl)amino)-6-(1-methyl-3-(trifluoromethyl)-1H-pyrazol-5-yl)pyridin-2-yl)piperidin-1-yl)-5,5-dimethyl-5H-pyrrolo[2,3-d]pyrimidin-6(7H)-one] | 0.9 | 0.3 | –
4 | CC1(C)C(=O)Nc2ncnc(N3CCC(c4nc(-c5nnc(C(F)(F)F)o5)ccc4NC[C@@H]4CCCN4)CC3)c21 [Compound 35, (S)-5,5-Dimethyl-4-(4-(3-((pyrrolidin-2-yl-methyl)amino)-6-(5-(trifluoromethyl)-1,3,4-oxadiazol-2-yl)pyridin-2-yl)piperidin-1-yl)-5H-pyrrolo[2,3-d]pyrimidin-6(7H)-one] | 1.5 | 0.4 | –
5 | CC1(C)C(=O)Nc2ncnc(N3CCC(c4nc(-c5ccc(F)nc5)ccc4NCCN4CCCC4)CC3)c21 [Compound 2, 4-(4-(6′-Fluoro-5-((2-(pyrrolidin-1-yl)ethyl)amino)-[2,3′-bipyridin]-6-yl)piperidin-1-yl)-5,5-dimethyl-5H-pyrrolo[2,3-d]pyrimidin-6(7H)-one] | 1.5 | 0.3 | –
6 | Cc1nnc(-c2ccc(NCCN3CCCC3)c(C3CCN(c4ncnc5c4C(C)(C)C(=O)N5)CC3)n2)s1 [Compound 36, 5,5-Dimethyl-4-(4-(6-(5-methyl-1,3,4-thiadiazol-2-yl)-3-((2-(pyrrolidin-1-yl)ethyl)amino)pyridin-2-yl)piperidin-1-yl)-5H-pyrrolo[2,3-d]pyrimidin-6(7H)-one] | – | 0.4 | –
7 | Cc1ncccc1-c1ccc(NCCN2CCCC2)c(C2CCN(c3ncnc4c3C(C)C(=O)N4)CC2)n1 (stereo not shown) [Compound 22, 5-Methyl-4-(4-(2′-methyl-5-((2-(pyrrolidin-1-yl)ethyl)amino)-[2,3′-bipyridin]-6-yl)piperidin-1-yl)-5H-pyrrolo[2,3-d]pyrimidin-6(7H)-one] | – | – | 1.8
8 | CCNCCNc1ccc(-c2cncc(F)c2)nc1C1CCN(c2ncnc3c2C(C)(C)C(=O)N3)CC1 [Compound 12, 4-(4-(5-((2-(Ethylamino)ethyl)amino)-5′-fluoro[2,3′-bipyridin]-6-yl)piperidin-1-yl)-5,5-dimethyl-5H-pyrrolo[2,3-d]pyrimidin-6(7H)-one] | 1.8 | 0.3 | –
9 | CN(C)CCNc1ccc(-c2cc(Cl)nn2C)nc1C1CCN(c2ncnc3c2C(C)(C)C(=O)N3)CC1 [Compound 9, 4-(4-(6-(3-Chloro-1-methyl-1H-pyrazol-5-yl)-3-((2-(dimethylamino)ethyl)amino)pyridin-2-yl)piperidin-1-yl)-5,5-dimethyl-5H-pyrrolo[2,3-d]pyrimidin-6(7H)-one] | 1.1 | 0.3 | –
10 | CC(C)NCCNc1cc(F)c(-c2cncc(F)c2)nc1C1CCN(c2ncnc3c2C(C)(C)C(=O)N3)CC1 [Compound 28, 4-(4-(3,5′-Difluoro-5-((2-(isopropylamino)ethyl)amino)-[2,3′-bipyridin]-6-yl)piperidin-1-yl)-5,5-dimethyl-5H-pyrrolo[2,3-d]pyrimidin-6(7H)-one] | – | 0.3 | –
11 | Cc1cc(-c2ccc(NCCN3CCCC3)c(C3CCN(c4ncnc5c4C(C)(C)C(=O)N5)CC3)n2)n(C)n1 [Compound 3, 4-(4-(6-(1,3-Dimethyl-1H-pyrazol-5-yl)-3-((2-(pyrrolidin-1-yl)ethyl)amino)pyridin-2-yl)piperidin-1-yl)-5,5-dimethyl-5H-pyrrolo[2,3-d]pyrimidin-6(7H)-one] | – | 0.4 | –
12 | CN(C)CCNc1ccc(-c2nnc(C(F)F)s2)nc1C1CCN(c2ncnc3c2C(C)(C)C(=O)N3)CC1 [Compound 38, 4-(4-(6-(5-(Difluoromethyl)-1,3,4-thiadiazol-2-yl)-3-((2-(dimethylamino)ethyl)amino)pyridin-2-yl)piperidin-1-yl)-5,5-dimethyl-5H-pyrrolo[2,3-d]pyrimidin-6(7H)-one] | 0.9 | 0.3 | –
13 | CC1(C)C(=O)Nc2ncnc(N3CCC(c4nc(-c5cncc(F)c5)ccc4NCCN4CCCC4)CC3)c21 [Compound 8, 4-(4-(5′-Fluoro-5-((2-(pyrrolidin-1-yl)ethyl)amino)-[2,3′-bipyridin]-6-yl)piperidin-1-yl)-5,5-dimethyl-5H-pyrrolo[2,3-d]pyrimidin-6(7H)-one] | 1.7 | 0.3 | –
14 | Cc1nc(C)c(-c2ccc(NCCNC(C)C)c(C3CCN(c4ncnc5c4C(C)(C)C(=O)N5)CC3)n2)s1 [Compound 6, 4-(4-(6-(2,4-Dimethylthiazol-5-yl)-3-((2-(isopropylamino)ethyl)amino)pyridin-2-yl)piperidin-1-yl)-5,5-dimethyl-5H-pyrrolo[2,3-d]pyrimidin-6(7H)-one] | 1 | 0.4 | –
15 | COc1cncc(-c2ccc(NCCN3CCCC3)c(C3CCN(c4ncnc5c4C(C)(C)C(=O)N5)CC3)n2)c1 [Compound 7, 4-(4-(5′-Methoxy-5-((2-(pyrrolidin-1-yl)ethyl)amino)-[2,3′-bipyridin]-6-yl)piperidin-1-yl)-5,5-dimethyl-5H-pyrrolo[2,3-d]pyrimidin-6(7H)-one] | 1.7 | 0.3 | –
16 | CC1C(=O)Nc2ncnc(N3CCC(c4nc(-c5ncco5)ccc4NCCN4CCCC4)CC3)c21 (stereo not shown) [Compound 25, 5-Methyl-4-(4-(6-(oxazol-2-yl)-3-((2-(pyrrolidin-1-yl)ethyl)amino)pyridin-2-yl)piperidin-1-yl)-5H-pyrrolo[2,3-d]pyrimidin-6(7H)-one] | – | – | 2.7
17 | CC(C)(C)NCCNc1ccc(-c2cnn(C(F)F)c2)nc1C1CCN(c2ncnc3c2C(C)(C)C(=O)N3)CC1 [Compound 4] | – | 0.4 | –
18 | CC1C(=O)Nc2ncnc(N3CCN(c4nc(-c5cncc(F)c5)ccc4NCCN(C)C)CC3)c21 (stereo not shown) [Compound 29, 4-(4-(5-((2-(Dimethylamino)ethyl)amino)-5′-fluoro-[2,3′-bipyridin]-6-yl)piperazin-1-yl)-5-methyl-5H-pyrrolo[2,3-d]pyrimidin-6(7H)-one] | – | 0.8 | –
